The record followed here is patent US10947210B2 (priority 2015, dated 2021).

As a reminder, the IC50 is the concentration needed to halve the response being measured.

Chain of HCV RNA-dependent RNA polymerase (NS5B) (P26663 2420-3010): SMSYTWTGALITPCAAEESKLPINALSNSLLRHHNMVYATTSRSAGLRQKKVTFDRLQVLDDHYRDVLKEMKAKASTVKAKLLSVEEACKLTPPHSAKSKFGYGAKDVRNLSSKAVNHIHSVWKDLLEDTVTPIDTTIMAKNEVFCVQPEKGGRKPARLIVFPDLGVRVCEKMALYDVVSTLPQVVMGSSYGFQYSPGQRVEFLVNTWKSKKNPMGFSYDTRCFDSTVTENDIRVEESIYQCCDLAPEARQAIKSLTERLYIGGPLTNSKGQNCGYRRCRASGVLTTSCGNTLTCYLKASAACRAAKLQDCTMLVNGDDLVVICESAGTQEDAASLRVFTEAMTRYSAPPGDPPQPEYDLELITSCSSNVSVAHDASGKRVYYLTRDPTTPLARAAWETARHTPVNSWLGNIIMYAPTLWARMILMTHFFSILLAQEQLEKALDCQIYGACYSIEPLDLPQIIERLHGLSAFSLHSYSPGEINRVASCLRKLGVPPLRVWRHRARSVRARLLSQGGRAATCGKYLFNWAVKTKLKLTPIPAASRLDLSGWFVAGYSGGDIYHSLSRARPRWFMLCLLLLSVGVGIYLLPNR

This experiment deals with HCV RNA-dependent RNA polymerase (NS5B) (Hepatitis C virus genotype 1b (isolate BK) (HCV), UniProt P26663). Briefly: RNA-Dependent RNA HCV NS5B (polymerase) Assay and IC50 Determination. The class given is biochemical. Particulars: purified HCV NS5B polymerase, polyA:U16 substrate, 32P-UTP incorporation; read-out: IC50. In a few lines:
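Purified NS5B was incubated with 0.5 uM polyA:U16, 10 μM UTP plus ^32P-UTP in 50 mM Hepes-KOH pH 7.5, 5 mM MgCl2, 5 mM DTT, 2% glycerol and 0.01% Triton X-100. Inhibitor reactions ran 60 min at 37° C, and radiolabelled RNA product was quantified after filter capture. IC50 values were obtained from concentration series.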
For `CNC(=O)c1c(-c2ccc(F)cc2)oc2cc(N(CCNC(=O)CNC(=O)CCCC(=O)O)S(C)(=O)=O)c(C3CC3)cc12` [Compound 07-7, 4-{[(2-{[5-Cyclopropyl-2-(4-fluoro-phenyl)-3-methylcarbamoyl-benzofuran-6-yl]-methanesulfonyl-amino}-ethylcarbamoyl)-methyl]-carbamoyl}-butyric Acid], the IC50 is greater than 1000 nM.
In the case of `CNC(=O)c1c(-c2ccc(F)cc2)oc2cc(N(CCOCCOCc3ccc(C(=O)O)c4ccccc34)S(C)(=O)=O)c(C3CC3)cc12` [Compound 20-8, 4-[2-(2-{[5-Cyclopropyl-2-(4-fluoro-phenyl)-3-methylcarbamoyl-benzofuran-6-yl]-methanesulfonyl-amino}-ethoxy)-ethoxymethyl]-naphthalene-1-carboxylic Acid], the IC50 was less than 100 nM.
Next, `CNC(=O)c1c(-c2ccc(F)cc2)oc2cc(N(CCOCCOCc3ccc(Cl)nc3)S(C)(=O)=O)c(C3CC3)cc12` [Compound 19-8B]: less than 100 nM.
As for `CNC(=O)c1c(-c2ccc(F)cc2)oc2cc(N(CCOCCOCCOc3ccccc3C(=O)O)S(C)(=O)=O)c(C3CC3)cc12` [Compound 14-7A, 2-{2-[2-(2-{[5-Cyclopropyl-2-(4-fluoro-phenyl)-3-methylcarbamoyl-benzofuran-6-yl]-methanesulfonyl-amino}-ethoxy)-ethoxy]-ethoxy}-benzoic Acid], the IC50 is less than 100 nM.
With `CNC(=O)c1c(-c2ccc(F)cc2)oc2cc(N(CCOCCOCCOC3(C(=O)OC(C)(C)C)CCCC3)S(C)(=O)=O)c(C3CC3)cc12` [Compound 26-6A] the figure was greater than 1000 nM.
With `CNC(=O)c1c(-c2ccc(F)cc2)oc2cc(N(CCOCCOCc3ccc(C(=O)OCC(N)=O)cc3)S(C)(=O)=O)c(C3CC3)cc12` [Compound 06-8B5, 4-[2-(2-{[5-Cyclopropyl-2-(4-fluoro-phenyl)-3-methylcarbamoyl-benzofuran-6-yl]-methanesulfonyl-amino}-ethoxy)-ethoxymethyl]-benzoic Acid Carbamoylmethyl Ester] the figure was 100 to 1000 nM; with `CNC(=O)c1c(-c2ccc(F)cc2)oc2cc(N(CCOCCOCCOC3(C(=O)O)CCCC3)S(C)(=O)=O)c(C3CC3)cc12` [Compound 26-7A, 1-{2-[2-(2-{[5-Cyclopropyl-2-(4-fluoro-phenyl)-3-methylcarbamoyl-benzofuran-6-yl]-methanesulfonyl-amino}-ethoxy)-ethoxy]-ethoxy}-cyclopentanecarboxylic Acid], less than 100 nM; with `CNC(=O)c1c(-c2ccc(F)cc2)oc2cc(N(CCOCCOCCCc3cccc(C(=O)CC(=O)C(=O)O)c3)S(C)(=O)=O)c(C3CC3)cc12` [Compound 30-8, 4-(3-{3-[2-(2-{[5-Cyclopropyl-2-(4-fluoro-phenyl)-3-methylcarbamoyl-benzofuran-6-yl]-methanesulfonyl-amino}-ethoxy)-ethoxy]-propyl}-phenyl)-2,4-dioxo-butyric acid], greater than 1000 nM.
Regarding `CNC(=O)c1c(-c2ccc(F)cc2)oc2cc(N(CCOCCCCc3ccc(C(=O)O)cc3)S(C)(=O)=O)c(C3CC3)cc12` [Compound 13-8A, 4-[4-(2-{[5-Cyclopropyl-2-(4-fluoro-phenyl)-3-methylcarbamoyl-benzofuran-6-yl]-methanesulfonyl-amino}-ethoxy)-butyl]-benzoic Acid], the IC50 lay in the range of 100 to 1000 nM.
Next, `CCCCOCCOCCOCCN(c1cc2oc(-c3ccc(F)cc3)c(C(=O)NC)c2cc1C1CC1)S(C)(=O)=O` [Compound 05-4B, 6-({2-[2-(2-Butoxy-ethoxy)-ethoxy]-ethyl}-methanesulfonyl-amino)-5-cyclopropyl-2-(4-fluoro-phenyl)-benzofuran-3-carboxylic Acid Methylamide]: greater than 1000 nM; `CNC(=O)c1c(-c2ccc(F)cc2)oc2cc(N(CCOCCOCCc3ccc(C(=O)O)cc3)S(C)(=O)=O)c(C3CC3)cc12` [Compound 11-6C, 4-{2-[2-(2-{[5-Cyclopropyl-2-(4-fluoro-phenyl)-3-methylcarbamoyl-benzofuran-6-yl]-methanesulfonyl-amino}-ethoxy)-ethoxy]-ethyl}-benzoic Acid]: 100 to 1000 nM.
Next, `CNC(=O)c1c(-c2ccc(F)cc2)oc2cc(N(CCCCCOCCCCC(=O)OC(C)(C)C)S(C)(=O)=O)c(C3CC3)cc12` [Compound 28-7A, 5-(5-{[5-Cyclopropyl-2-(4-fluoro-phenyl)-3-methylcarbamoyl-benzofuran-6-yl]-methanesulfonyl-amino}-pentyloxy)-pentanoic Acid Tert-butyl Ester]: greater than 1000 nM.
With `CNC(=O)c1c(-c2ccc(F)cc2)oc2cc(N(CCNC(=O)CNC(=O)c3cccc(CCCC(=O)O)c3)S(C)(=O)=O)c(C3CC3)cc12` [Compound 07-10, 4-(3-{[(2-{[5-Cyclopropyl-2-(4-fluoro-phenyl)-3-methylcarbamoyl-benzofuran-6-yl]-methanesulfonyl-amino}-ethylcarbamoyl)-methyl]-carbamoyl}-phenyl)-butyric Acid] the figure was greater than 1000 nM.
In the case of `CNC(=O)c1c(-c2ccc(F)cc2)oc2cc(N(CCOCCOCCOCCOCc3cccc(C(=O)/C=C(\O)C(=O)O)c3)S(C)(=O)=O)c(C3CC3)cc12` [Compound 02-10C, 4-[3-(2-{2-[2-(2-{[5-Cyclopropyl-2-(4-fluoro-phenyl)-3-methylcarbamoyl-benzofuran-6-yl]-methanesulfonyl-amino}-ethoxy)-ethoxy]-ethoxy}-ethoxymethyl)-phenyl]-2-hydroxy-4-oxo-but-2-enoic Acid], the IC50 lay in the range of 100 to 1000 nM.
Next, `CNC(=O)c1c(-c2ccc(F)cc2)oc2cc(N(CCOCCOCc3ccnc(Cl)c3)S(C)(=O)=O)c(C3CC3)cc12` [Compound 19-8A, 6-({2-[2-(2-Chloro-pyridin-4-ylmethoxy)-ethoxy]-ethyl}-methanesulfonyl-amino)-5-cyclopropyl-2-(4-fluoro-phenyl)-benzofuran-3-carboxylic Acid Methylamide]: less than 100 nM.
With `CNC(=O)c1c(-c2ccc(F)cc2)oc2cc(N(CCOCCOCCCCc3cccc(C(=O)CC(=O)C(=O)O)c3)S(C)(=O)=O)c(C3CC3)cc12` [Compound 30-12, 4-(3-{4-[2-(2-{[5-Cyclopropyl-2-(4-fluoro-phenyl)-3-methylcarbamoyl-benzofuran-6-yl]-methanesulfonyl-amino}-ethoxy)-ethoxy]-butyl}-phenyl)-2,4-dioxo-butyric acid] the figure was greater than 1000 nM; with `CNC(=O)c1c(-c2ccc(F)cc2)oc2cc(N(CCOCCOCCOCc3cccc(C(=O)/C=C(\O)C(=O)O)c3)S(C)(=O)=O)c(C3CC3)cc12` [Compound 02-10B, 4-(3-{2-[2-(2-{[5-Cyclopropyl-2-(4-fluoro-phenyl)-3-methylcarbamoyl-benzofuran-6-yl]-methanesulfonyl-amino}-ethoxy)-ethoxy]-ethoxymethyl}-phenyl)-2-hydroxy-4-oxo-but-2-enoic Acid], greater than 1000 nM.
Next, `CNC(=O)c1c(-c2ccc(F)cc2)oc2cc(N(CCCCCOCc3ccc(C(=O)OC)cc3)S(C)(=O)=O)c(C3CC3)cc12` [Compound 16-6, 4-(5-{[5-Cyclopropyl-2-(4-fluoro-phenyl)-3-methylcarbamoyl-benzofuran-6-yl]-methanesulfonyl-amino}-pentyloxymethyl)-benzoic Acid Methyl Ester]: greater than 1000 nM; `CNC(=O)c1c(-c2ccc(F)cc2)oc2cc(N(CCOCCCCCOCC(=O)OC(C)(C)C)S(C)(=O)=O)c(C3CC3)cc12` [Compound 27-8A, [5-(2-{[5-Cyclopropyl-2-(4-fluoro-phenyl)-3-methylcarbamoyl-benzofuran-6-yl]-methanesulfonyl-amino}-ethoxy)-pentyloxy]-acetic Acid Tert-butyl Ester]: greater than 1000 nM; `CNC(=O)c1c(-c2ccc(F)cc2)oc2cc(N(CCCOCCCc3ccc(C(=O)O)cc3)S(C)(=O)=O)c(C3CC3)cc12` [Compound 13-8B, 4-[3-(3-{[5-Cyclopropyl-2-(4-fluoro-phenyl)-3-methylcarbamoyl-benzofuran-6-yl]-methanesulfonyl-amino}-propoxy)-propyl]-benzoic Acid]: 100 to 1000 nM.
Take `CNC(=O)c1c(-c2ccc(F)cc2)oc2cc(N(CCCCOCCc3ccc(C(=O)OC)cc3)S(C)(=O)=O)c(C3CC3)cc12` [Compound 13-7C, 4-[2-(4-{[5-Cyclopropyl-2-(4-fluoro-phenyl)-3-methylcarbamoyl-benzofuran-6-yl]-methanesulfonyl-amino}-butoxy)-ethyl]-benzoic Acid Methyl Ester]: the IC50 lay in the range of 100 to 1000 nM.
For `CCCCCOC(=O)c1ccc(COCCOCCN(c2cc3oc(-c4ccc(F)cc4)c(C(=O)NC)c3cc2C2CC2)S(C)(=O)=O)cc1` [Compound 06-8B4, 4-[2-(2-{[5-Cyclopropyl-2-(4-fluoro-phenyl)-3-methylcarbamoyl-benzofuran-6-yl]-methanesulfonyl-amino}-ethoxy)-ethoxymethyl]-benzoic Acid Pentyl Ester], the IC50 is 100 to 1000 nM.
In the case of `CCOC(=O)C(OCCOCCOCCN(c1cc2oc(-c3ccc(F)cc3)c(C(=O)NC)c2cc1C1CC1)S(C)(=O)=O)c1ccccc1` (stereo not drawn) [Compound 25-4, {2-[2-(2-{[5-Cyclopropyl-2-(4-fluoro-phenyl)-3-methylcarbamoyl-benzofuran-6-yl]-methanesulfonyl-amino}-ethoxy)-ethoxy]-ethoxy}-phenyl-acetic Acid Ethyl Ester], the IC50 was greater than 1000 nM.
Consider `CNC(=O)c1c(-c2ccc(F)cc2)oc2cc(N(CCOCCCCCOC(C)C(=O)O)S(C)(=O)=O)c(C3CC3)cc12` (stereo not drawn) [Compound 27-9B, 2-[5-(2-{[5-Cyclopropyl-2-(4-fluoro-phenyl)-3-methylcarbamoyl-benzofuran-6-yl]-methanesulfonyl-amino}-ethoxy)-pentyloxy]-propionic Acid], for which the IC50 fell in the range of 100 to 1000 nM.
